# Values quoted from earlier work as cited in patent US10545073B2, “Method and instrument for extracting a component from a sample” (priority 2016, dated 2020).
row,SMILES,log P
1,Fc1ccc([C@@H]2CCNC[C@H]2COc2ccc3c(c2)OCO3)cc1 [Paroxetine],3.89
2,CNC(=C[N+](=O)[O-])NCCSCc1ccc(CN(C)C)o1 [Ranitidine],1.23
3,CC(C)(C)NCC(O)c1ccc(O)c(CO)c1 (stereo not shown) [Salbutamol],0.01
4,CN[C@H]1CC[C@@H](c2ccc(Cl)c(Cl)c2)c2ccccc21 [Sertraline],4.81
